Experimental data: US20260365682A1, “MODULATORS OF TNF-ALPHA ACTIVITY” (Forward Therapeutics, Inc., priority 2022, published 2026)

target: T1, TNF-α (Homo sapiens, UniProt P01375); test: TNF-α Induced HEK Blue Cellular Assay (secreted alkaline phosphatase expression, QUANTI-Blue); type: cell-based; conditions: HEK Blue TNFα reporter cells; TNF-α 100 μg/ml; 24 hrs at 37° C.; inhibition of secreted alkaline phosphatase; read-out: IC50 value
T1 construct: purchased R&D 210-TA-020/CF
Procedure, shortened: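 HEK Blue TNFα reporter cells (10,000/well) in DMEM with 10% FBS received compound ([…] to 0.5 nM final) and TNF-α at […] final for 24 h at 37° C. Secreted alkaline phosphatase read with QUANTI-Blue at 620 nm. IC50 came from a 4-parameter logistic fit after normalising to unstimulated and stimulated DMSO controls.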

T1 sequence (P01375 77-233 limits assumed): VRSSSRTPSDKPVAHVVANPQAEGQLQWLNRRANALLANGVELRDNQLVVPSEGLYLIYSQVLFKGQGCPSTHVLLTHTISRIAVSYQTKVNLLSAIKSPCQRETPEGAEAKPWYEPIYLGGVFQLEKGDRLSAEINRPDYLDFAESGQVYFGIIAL

First: [2H]C([2H])([2H])N1C(=O)c2cccc(OC(F)F)c2[C@H]2C[C@@H]1c1nc3ccc(C#CC4CC4(F)F)cc3n12 (stereo partly drawn) [Example 196, (7R,14R)-11-((2,2-difluorocyclopropyl)ethynyl)-1-(difluoromethoxy)-6-(methyl-d3)-6,7-dihydro-7,14-methanobenzo[f]benzo[4,5]imidazo[1,2-a][1,4]diazocin-5(14H)-one]
Second: [2H]C([2H])([2H])N1C(=O)c2cccc(OC(F)F)c2[C@H]2C[C@@H]1c1nc3ccc(C#C)cc3n12 [Example 44, (7R,14R)-1-(difluoromethoxy)-11-ethynyl-6-(methyl-d3)-6,7-dihydro-7,14-methanobenzo[f]benzo[4,5]imidazo[1,2-a][1,4]diazocin-5(14H)-one]
The IC50 of the first is higher: 100 to 1000 nM for the first, less than 100 nM for the second. The second is the more potent here.

First: [2H]C([2H])([2H])N1C(=O)c2cccc(OC(F)F)c2[C@H]2C[C@@H]1c1nc3ccc(C#CC4(C)CN(C(=O)C(C)(C)O)C4)cc3n12 [Example 156, (7R,14R)-1-(difluoromethoxy)-11-((1-(2-hydroxy-2-methylpropanoyl)-3-methylazetidin-3-yl)ethynyl)-6-(methyl-d3)-6,7-dihydro-7,14-methanobenzo[f]benzo[4,5]imidazo[1,2-a][1,4]diazocin-5(14H)-one]
Second: [2H]C([2H])([2H])N1C(=O)c2cccc(OC(F)F)c2[C@H]2C[C@@H]1c1nc3ccc(C#CC4(C)CN(C(=O)C(C)(C)C)C4)cc3n12 [Example 167, (7R,14R)-1-(difluoromethoxy)-6-(methyl-d3)-11-((3-methyl-1-pivaloylazetidin-3-yl)ethynyl)-6,7-dihydro-7,14-methanobenzo[f]benzo[4,5]imidazo[1,2-a][1,4]diazocin-5(14H)-one]
The IC50 of the first is higher: 100 to 1000 nM for the first, less than 100 nM for the second. The second is the more potent here.

First: [2H]C([2H])([2H])N1C(=O)c2cccc(OC(F)F)c2[C@H]2C[C@@H]1c1nc3ccc(C#C[C@H](C)O)cc3n12 [Example 169, (7R,14R)-1-(difluoromethoxy)-11-((S)-3-hydroxybut-1-yn-1-yl)-6-(methyl-d3)-6,7-dihydro-7,14-methanobenzo[f]benzo[4,5]imidazo[1,2-a][1,4]diazocin-5(14H)-one]
Second: [2H]C([2H])([2H])N1C(=O)c2cccc(OC(F)F)c2[C@H]2C[C@@H]1c1nc3ccc(C#C[C@@H](C)COC)cc3n12 [Example 147, (7R,14R)-1-(difluoromethoxy)-11-((R)-4-methoxy-3-methylbut-1-yn-1-yl)-6-(methyl-d3)-6,7-dihydro-7,14-methanobenzo[f]benzo[4,5]imidazo[1,2-a][1,4]diazocin-5(14H)-one]
The IC50 of the first is higher: 100 to 1000 nM for the first, less than 100 nM for the second.

First: [2H]C([2H])([2H])N1C(=O)c2cccc(OC(F)F)c2[C@H]2C[C@@H]1c1nc3ccc(C#CC4(C)CN(C5CC5)C4)cc3n12 [Example 211, (7R,14R)-11-((1-cyclopropyl-3-methylazetidin-3-yl)ethynyl)-1-(difluoromethoxy)-6-(methyl-d3)-6,7-dihydro-7,14-methanobenzo[f]benzo[4,5]imidazo[1,2-a][1,4]diazocin-5(14H)-one]
Second: [2H]C([2H])([2H])N1C(=O)c2cccc(OC(F)F)c2[C@H]2C[C@@H]1c1nc3ccc(C#CC4CCCCN4)cc3n12 (stereo partly drawn) [Example 47, (7R,14R)-1-(difluoromethoxy)-6-(methyl-d3)-11-(piperidin-2-ylethynyl)-6,7-dihydro-7,14-methanobenzo[f]benzo[4,5]imidazo[1,2-a][1,4]diazocin-5(14H)-one]
The IC50 of the first is lower: less than 100 nM for the first, 10000 to 30000 nM for the second.

First: [2H]C([2H])([2H])N1C(=O)c2cccc(OC(F)F)c2[C@H]2C[C@@H]1c1nc3ccc(C#CCC(C)OC)cc3n12 (single isomer, unassigned) [Example 149, (7R,14R)-1-(difluoromethoxy)-11-((S or R)-4-methoxypent-1-yn-1-yl)-6-(methyl-d3)-6,7-dihydro-7,14-methanobenzo[f]benzo[4,5]imidazo[1,2-a][1,4]diazocin-5(14H)-one]
Second: [2H]C([2H])([2H])N1C(=O)c2cccc(OC(F)F)c2[C@H]2C[C@@H]1c1nc3ccc(C#CCNCC)cc3n12 [Example 65, (7R,14R)-1-(difluoromethoxy)-11-(3-(ethylamino)prop-1-yn-1-yl)-6-(methyl-d3)-6,7-dihydro-7,14-methanobenzo[f]benzo[4,5]imidazo[1,2-a][1,4]diazocin-5(14H)-one]
The IC50 of the first is lower: less than 100 nM for the first, 10000 to 30000 nM for the second.

`[2H]C([2H])([2H])N1C(=O)c2cccc(OC(F)F)c2[C@H]2C[C@@H]1c1nc3ccc(C#Cc4cnn(C)c4C#N)cc3n12` [Example 24, 4-(((7R,14R)-1-(difluoromethoxy)-6-(methyl-d3)-5-oxo-5,6,7,14-tetrahydro-7,14-methanobenzo[f]benzo[4,5]imidazo[1,2-a][1,4]diazocin-11-yl)ethynyl)-1-methyl-1H-pyrazole-5-carbonitrile] and `[2H]C([2H])([2H])N1C(=O)c2cccc(OC(F)F)c2[C@H]2C[C@@H]1c1nc3ccc(C#Cc4cnn(C)c4)cc3n12` [Example 8, (7R,14R)-1-(difluoromethoxy)-6-(methyl-d3)-11-((1-methyl-1H-pyrazol-4-yl)ethynyl)-6,7-dihydro-7,14-methanobenzo[f]benzo[4,5]imidazo[1,2-a][1,4]diazocin-5(14H)-one] cannot be ordered by IC50: less than 100 nM for the first, less than 100 nM for the second.

First: [2H]C([2H])([2H])N1C(=O)c2cccc(OC(F)F)c2[C@H]2C[C@@H]1c1nc3ccc(C#Cc4cncn4C)cc3n12 [Example 17, (7R,14R)-1-(difluoromethoxy)-6-(methyl-d3)-11-((1-methyl-1H-imidazol-5-yl)ethynyl)-6,7-dihydro-7,14-methanobenzo[f]benzo[4,5]imidazo[1,2-a][1,4]diazocin-5(14H)-one]
Second: [2H]C([2H])([2H])N1C(=O)c2cccc(OC(F)F)c2[C@H]2C[C@@H]1c1nc3ccc(C#Cc4cccnn4)cc3n12 [Example 33, (7R,14R)-1-(difluoromethoxy)-6-(methyl-d3)-11-(pyridazin-3-ylethynyl)-6,7-dihydro-7,14-methanobenzo[f]benzo[4,5]imidazo[1,2-a][1,4]diazocin-5(14H)-one]
The IC50 of the first is lower: less than 100 nM for the first, 10000 to 30000 nM for the second. The first is the more potent here.

First: [2H]C([2H])([2H])N1C(=O)c2cccc(OC(F)F)c2[C@H]2C[C@@H]1c1nc3ccc(C#CCOCC(C)O)cc3n12 (stereo partly drawn) [Example 73, (7R,14R)-1-(difluoromethoxy)-11-(3-(2-hydroxypropoxy)prop-1-yn-1-yl)-6-(methyl-d3)-6,7-dihydro-7,14-methanobenzo[f]benzo[4,5]imidazo[1,2-a][1,4]diazocin-5(14H)-one]
Second: [2H]C([2H])([2H])N1C(=O)c2cccc(OC(F)F)c2[C@H]2C[C@@H]1c1nc3ccc(C#CCC4(O)COC4)cc3n12 [Example 81, (7R,14R)-1-(difluoromethoxy)-11-(3-(3-hydroxyoxetan-3-yl)prop-1-yn-1-yl)-6-(methyl-d3)-6,7-dihydro-7,14-methanobenzo[f]benzo[4,5]imidazo[1,2-a][1,4]diazocin-5(14H)-one]
The IC50 of the first is lower: less than 100 nM for the first, 100 to 1000 nM for the second. The first is the more potent here.

Compared with `[2H]C([2H])([2H])N1C(=O)c2cccc(OC(F)F)c2[C@H]2C[C@@H]1c1nc3ccc(C#CCN4CCOCC4)cc3n12` [Example 229, (7R,14R)-1-(difluoromethoxy)-6-(methyl-d3)-11-(3-morpholinoprop-1-yn-1-yl)-6,7-dihydro-7,14-methanobenzo[f]benzo[4,5]imidazo[1,2-a][1,4]diazocin-5(14H)-one], `[2H]C([2H])([2H])N1C(=O)c2cccc(OC(F)F)c2[C@H]2C[C@@H]1c1nc3ccc(C#CCN4CC[C@@H](F)C4)cc3n12` [Example 236, (7R,14R)-1-(difluoromethoxy)-11-(3-((R)-3-fluoropyrrolidin-1-yl)prop-1-yn-1-yl)-6-(methyl-d3)-6,7-dihydro-7,14-methanobenzo[f]benzo[4,5]imidazo[1,2-a][1,4]diazocin-5(14H)-one] is lower in IC50: 100 to 1000 nM for the first, less than 100 nM for the second. The second is the more potent here.

First: [2H]C([2H])([2H])N1C(=O)c2cccc(OC(F)F)c2[C@H]2C[C@@H]1c1nc3ccc(C#CCCNC(=O)C(C)(C)O)cc3n12 [Example 213, N-(4-((7R,14R)-1-(difluoromethoxy)-6-(methyl-d3)-5-oxo-5,6,7,14-tetrahydro-7,14-methanobenzo[f]benzo[4,5]imidazo[1,2-a][1,4]diazocin-11-yl)but-3-yn-1-yl)-2-hydroxy-2-methylpropanamide]
Second: [2H]C([2H])([2H])N1C(=O)c2cccc(OC(F)F)c2[C@H]2C[C@@H]1c1nc3ccc(C#CC4CCN(C(=O)C(C)(C)C)C4)cc3n12 (stereo partly drawn) [Example 204, (7R,14R)-1-(difluoromethoxy)-6-(methyl-d3)-11-((1-pivaloylpyrrolidin-3-yl)ethynyl)-6,7-dihydro-7,14-methanobenzo[f]benzo[4,5]imidazo[1,2-a][1,4]diazocin-5(14H)-one]
The IC50 of the first is higher: 10000 to 30000 nM for the first, less than 100 nM for the second. The second is the more potent here.

`[2H]C([2H])([2H])N1C(=O)c2cccc(OC(F)F)c2[C@H]2C[C@@H]1c1nc3ccc(C#CC4CCCNC4)cc3n12` (stereo partly drawn) [Example 60, (7R,14R)-1-(difluoromethoxy)-6-(methyl-d3)-11-(piperidin-3-ylethynyl)-6,7-dihydro-7,14-methanobenzo[f]benzo[4,5]imidazo[1,2-a][1,4]diazocin-5(14H)-one] and `[2H]C([2H])([2H])N1C(=O)c2cccc(OC(F)F)c2[C@H]2C[C@@H]1c1nc3ccc(C#CC4CN(C(=O)C5(O)CC5)C4)cc3n12` [Example 195, (7R,14R)-1-(difluoromethoxy)-11-((1-(1-hydroxycyclopropane-1-carbonyl)azetidin-3-yl)ethynyl)-6-(methyl-d3)-6,7-dihydro-7,14-methanobenzo[f]benzo[4,5]imidazo[1,2-a][1,4]diazocin-5(14H)-one] cannot be ordered by IC50: less than 100 nM for the first, less than 100 nM for the second.

`[2H]C([2H])([2H])N1C(=O)c2cccc(OC(F)F)c2[C@H]2C[C@@H]1c1nc3ccc(C#Cc4ccc(P(C)(C)=O)s4)cc3n12` [Example 107, (7R,14R)-1-(difluoromethoxy)-11-((5-(dimethylphosphoryl)thiophen-2-yl)ethynyl)-6-(methyl-d3)-6,7-dihydro-7,14-methanobenzo[f]benzo[4,5]imidazo[1,2-a][1,4]diazocin-5(14H)-one] was tested, and the IC50 was less than 100 nM.
